Data as given in patent US20100204487A1, “PROCESS FOR MAKING THIOPHENE CARBOXAMIDE DERIVATIVES” (priority 2007, published 2010).
Structures can show the parent of a compound that is named as a salt.

Tests used:
[1] = in vivo
[2] = pharmacokinetics / bioavailability of free acid and salts of the compound of Formula I; conditions: free acid

Row | exposure [1] | bioavailability [2] | SMILES
1 | doubled the exposure | – | Cc1sc(C)c(C(=O)NC2(c3ccc(C(=O)O)cc3)CC2)c1Cc1ccc(C(F)(F)F)cc1 [Et2NH salt, 4-{1-[({2,5-dimethyl-4-[4-(trifluoromethyl)benzyl]-3-thienyl}carbonyl)amino]cyclopropyl}benzoic acid diethylamine salt]
2 | – | poorly bioavailable | Cc1sc(C)c(C(=O)NC2(c3ccc(C(=O)O)cc3)CC2)c1Cc1ccc(C(F)(F)F)cc1 [free acid of Formula I]
